From US11596642B2, “Therapeutic treatment of breast cancer based on c-MAF status” (INBIOMOTION S.L., priority 2016, dated 2023)

Key:
Assay type in all cases: in vivo, human
[1] = tested on: breast cancer; experiment: AZURE trial, MAF FISH stratification: overall survival (OS); details: MAF negative post menopausal patients; zoledronic acid treatment; 95% CI 0.31-1.01
Excerpt: (§1) The MAF FISH assay was produced by Kreatech for Inbiomotion based on KREATECH proprietary FISH technology. The probe set contains two probes: a MAF 16q23 probe plus a D16Z3 probe as control of chromosome 16 centromeric region. The assay was validated using a 16q23/D16Z3 probe (Inbiomotion) and Poseidon Tissue Digestion Kit from Kreatech. The scoring criteria were defined in a fact sheet and as follows: two FISH evaluable results per patient, and the highest value was selected. The scoring algorithm was as follows: 20 cells counted for target and centromere amplification, if the gene count is >2 and ≤3, then 50 cells were counted. […]
(§2) numerical and categorical (+/− cut-off>=2.5) variable; % of nucleic MAF amplified (MAF CN>2):numberical+categorical (cut-off TBD). […] The following clinical variables were analyzed: disease-free survival (DFS), invasive disease-free survival (IDFS), overall survival (OS), first recurrence in bone, bone recurrence at any time, time to first DFS event in bone, time to first DFS event not in bone, response to zoledronic acid treatment.
(§3) In analyzing the MAF FISH prognostic value, the patients from the control and treatment arms were pooled for the initial analysis. Optimized cut-offs for each variable to be analyzed were used when indicated. […]

[2] = tested on: breast cancer; experiment: AZURE trial, MAF FISH stratification: disease free survival (DFS); details: MAF negative post menopausal patients; zoledronic acid treatment; 95% CI 0.33-0.95
Excerpt: as §1, §2, §3

[3] = tested on: breast cancer; experiment: AZURE trial, retrospective MAF FISH stratification: time to bone metastasis (zoledronic acid arm vs control arm)
Excerpt: The MAF FISH assay was produced by Kreatech for Inbiomotion based on KREATECH proprietary FISH technology. The probe set contains two probes: a MAF 16q23 probe plus a D16Z3 probe as control of chromosome 16 centromeric region. The assay was validated using a 16q23/D16Z3 probe (Inbiomotion) and Poseidon Tissue Digestion Kit from Kreatech. The scoring criteria were defined in a fact sheet and as follows: two FISH evaluable results per patient, and the highest value was selected. The scoring algorithm was as follows: 20 cells counted for target and centromere amplification, if the gene count is >2 and ≤3, then 50 cells were counted.
An overview of the AZURE clinical trial (Coleman et al N Eng J Med 2011; 365: 1396-1405 and AZURE Current Controlled Trials number, ISRCTN79831382 and ClinicalTrials.gov identifier NCT00072020) study design, whose patients were used to validate MAF, is provided in FIG. 2. MAF was validated in a retrospective analysis of the AZURE trial using patient tumor sample prospectively collected under regulatory compliant conditions. Out of the 3360 patients recruited, 1,769 donated tumor tissue (52.4%). There were 13 TMAs (tissue micro array) (150 patient samples each) (1,769 patients). There were 4 replicas of each TMA using different tissue cores (6,326 (4×patient)). One TMA had only 1 replica and two TMAs had three replicas. Based on the H&E analysis (hematoxilyin and eosin) (FIG. 3) (6,326): 3978 cores were evaluable (63%) and 2348 were nonevaluable.
For the FISH assay, there were 2,067 FISH evaluable cores (56%). […] 567 patients were nonevaluable by FISH in any of the 4 replicas (32%).
numerical and categorical (+/− cut-off>=2.5) variable; % of nucleic MAF amplified (MAF CN>2):numberical+categorical (cut-off TBD). For the IHC analysis: IHC H-Score: numerical+categorical (cut-off=200), IHC OD: numerical+categorical (cut-off tBD). The following clinical variables were analyzed: disease-free survival (DFS), invasive disease-free survival (IDFS), overall survival (OS), first recurrence in bone, bone recurrence at any time, time to first DFS event in bone, time to first DFS event not in bone, response to zoledronic acid treatment.
In analyzing the MAF FISH prognostic value, the patients from the control and treatment arms were pooled for the initial analysis. Optimized cut-offs for each variable to be analyzed were used when indicated. Death as a competing event was used in time to bone metastasis, anytime. The following clinical variables were analyzed: time to bone metastasis (anytime), time to bone metastasis (as first event), IDFS (including ipsilateral invasive breast tumor recurrence, regional invasive breast cancer recurrence, metastatic disease-breast cancer, death attributable to any cause, including breast cancer, contralateral invasive breast cancer, second primary non-breast invasive cancer), and overall survival.
The control and zoledronic acid treatment arms from the AZURE study described in Example 1 were evaluated to determine the effect of zoledronic acid treatment on MAF-stratified patients.

[4] = tested on: breast cancer; experiment: AZURE trial, MAF FISH stratification: invasive disease free survival (IDFS) / time to recurrence; details: MAF positive patients (>=2.2) in the zoledronic acid treatment arm; p<0.001, multivariate analysis
Excerpt: as §1, §2, §3

In the case of O=P(O)(O)C(O)(Cn1ccnc1)P(=O)(O)O [zoledronic acid], the “Hazard ratio (HR), overall survival outcome” value [1] is reported as 0.56, the “Hazard ratio (HR), DFS outcome” value [2] is reported as 0.56 and the “Hazard ratio (HR), risk of bone metastasis at any time” value (“Hazard ratio (HR), risk” for short) ([3]; MAF FISH not positive patients, pre-specified cut off 2.5, zoledronic acid treatment vs control, death as competing event, p=0.03) is reported as 0.65. The “Hazard ratio (HR), time to a bone metastatic event (anytime)” value (from here on “Hazard ratio (HR), time … (anytime)”) ([3]; MAF non-positive non-post-menopausal patients, cut off 2.5, p=0.08) was 0.66, the “Hazard ratio (HR), time … (anytime)” value ([3]; MAF non-positive postmenopausal patients, cut off 2.5, limited number of events) was 0.63 and the “Hazard ratio (HR), time … (anytime)” value ([3]; MAF positive non-post-menopausal patients, cut off 2.5, p=0.045) was 2.44. The “Hazard ratio (HR), risk” value ([3]; MAF positive patients, cut off 2.5, zoledronic acid treatment vs control, non-significant, p=0.22) was 1.54, the “Hazard ratio (HR), time … (anytime)” value ([3]; MAF positive postmenopausal patients (>2.5), treatment outcome, p=0.26, limited number of events) was 0.46 and the “Hazard ratio (HR), risk” value ([3]; zoledronic acid arm, MAF FISH not positive (<2.3) compared to MAF FISH positive patients, p=0.01) was 0.52. The “Hazard ratio (HR), time to recurrence (invasive disease)” value [4] was 0.52.
